The values below come from PubChem BioAssay AID1919008 (Molecular Pharmacology Branch, DTP, NCI, 2023).

SMILES strings stand for the structures.

This assay relates to DMS-114 complex spheroids with HUVEC/MSC, growth % test/control. As to the kind of experiment: Anticancer human tumor DMS-114 cell line growth inhibition [AhR].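 For all read-outs here: spheroids exposed to agents for 7 days before readout.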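 For viability, T/C: 100% = DMSO vehicle control wells.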 To be noted: for viability, T/C: stronger effect = lower value. Summed up:
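Spheroids combined tumor cells with HUVEC endothelial cells and human MSCs as stroma. AhR antagonists were paired with standard or investigational drugs, each dosed in half-log steps down from near clinical Cmax, or from 10 microM where Cmax was unknown.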

[1] abbreviates: curve of first compound, second compound 0.1 µM.
Where [2] appears, read: curve of first compound, second compound 0.316 µM.
The mark [3] stands for this setting: curve of first compound, second compound 1 µM.
Where [4] appears, read: curve of first compound, second compound 3.16 µM.
[5] abbreviates: curve of first compound, second compound 10 µM.
Where [6] appears, read: second compound 0.1 µM, first compound 0.000949 µM.
The mark [7] stands for this setting: second compound 0.1 µM, first compound 0.003 µM.
Setting [8] is: second compound 0.1 µM, first compound 0.00949 µM.
Setting [9] is: second compound 0.1 µM, first compound 0.03 µM.
[10] abbreviates: second compound 0.1 µM, first compound 0.0949 µM.
The mark [11] stands for this setting: second compound 0.1 µM, first compound 0.3 µM.
Where [12] appears, read: second compound 0.316 µM, first compound 0.000949 µM.
Where [13] appears, read: second compound 0.316 µM, first compound 0.003 µM.
[14] abbreviates: second compound 0.316 µM, first compound 0.00949 µM.
The mark [15] stands for this setting: second compound 0.316 µM, first compound 0.03 µM.
Setting [16] is: second compound 0.316 µM, first compound 0.0949 µM.
Where [17] appears, read: second compound 0.316 µM, first compound 0.3 µM.
Setting [18] is: second compound 1 µM, first compound 0.000949 µM.
The mark [19] stands for this setting: second compound 1 µM, first compound 0.003 µM.
Where [20] appears, read: second compound 1 µM, first compound 0.00949 µM.
[21] abbreviates: second compound 1 µM, first compound 0.03 µM.
Setting [22] is: second compound 1 µM, first compound 0.0949 µM.
Setting [23] is: second compound 1 µM, first compound 0.3 µM.
Where [24] appears, read: second compound 3.16 µM, first compound 0.000949 µM.
[25] abbreviates: second compound 3.16 µM, first compound 0.003 µM.
The mark [26] stands for this setting: second compound 3.16 µM, first compound 0.00949 µM.
The mark [27] stands for this setting: second compound 3.16 µM, first compound 0.03 µM.
Setting [28] is: second compound 3.16 µM, first compound 0.0949 µM.
[29] abbreviates: second compound 3.16 µM, first compound 0.3 µM.
Where [30] appears, read: second compound 10 µM, first compound 0.000949 µM.
Setting [31] is: second compound 10 µM, first compound 0.003 µM.
Where [32] appears, read: second compound 10 µM, first compound 0.00949 µM.
The mark [33] stands for this setting: second compound 10 µM, first compound 0.03 µM.
The mark [34] stands for this setting: second compound 10 µM, first compound 0.0949 µM.
Setting [35] is: second compound 10 µM, first compound 0.3 µM.

Consider `CCc1c2c(nc3ccc(O)cc13)-c1cc3c(c(=O)n1C2)COC(=O)[C@]3(O)CC` + CC(CO)NC(=O)c1cc(-c2ccc(Cl)cc2)nn(-c2cnn(C)c2)c1=O, for which the IC50 (commonly the concentration at which inhibition is half-maximal) is, setting by setting: under setting [1], 1.6 nM; under setting [2], 1.09 nM; under setting [3], less than 0.949 nM; under setting [4], less than 0.949 nM; under setting [5], less than 0.949 nM. Also, the viability, T/C (in general, the ratio of treated to control) under setting [6] was 56.4%; the viability, T/C under setting [7] was 42.4%; the viability, T/C under setting [8] is 23.2%; the viability, T/C under setting [9] is 17.5%; the viability, T/C under setting [10] was 17.7%; the viability, T/C under setting [11] is 16.2%. In addition, the viability, T/C under setting [12] was 51.4%; the viability, T/C under setting [13] was 40.4%; the viability, T/C under setting [14] was 21.2%; the viability, T/C under setting [15] is 15.8%; the viability, T/C under setting [16] is 15.7%; the viability, T/C under setting [17] is 15.4%. For the same compound, the viability, T/C is 49.4% under setting [18]; 37.8% under setting [19]; 21% under setting [20]; 15.4% under setting [21]; 18.8% under setting [22]; 17.6% under setting [23]. Besides, the viability, T/C is 47.9% under setting [24]; 31.5% under setting [25]; 20.7% under setting [26]; 13.9% under setting [27]; 15.3% under setting [28]; 16.6% under setting [29]. Besides, the viability, T/C was 43.5% under setting [30]; 35.9% under setting [31]; 22.4% under setting [32]; 15.1% under setting [33]; 15.7% under setting [34]; 16.6% under setting [35].
Turning to `CC(C)CC(NC(=O)C(Cc1ccccc1)NC(=O)c1cnccn1)B(O)O` (stereo not drawn) + CC(CO)NC(=O)c1cc(-c2ccc(Cl)cc2)nn(-c2cnn(C)c2)c1=O, the IC50 is 3.61 nM under setting [1]; 4.04 nM under setting [2]; 3.33 nM under setting [3]; 3.29 nM under setting [4]; 4.34 nM under setting [5]. Also, the viability, T/C is 100% under setting [6]; 59.4% under setting [7]; 0.72% under setting [8]; 0.35% under setting [9]; 0.11% under setting [10]; 0.29% under setting [11]. In addition, the viability, T/C runs as follows: under setting [12], 95.5%; under setting [13], 66.8%; under setting [14], 1.94%; under setting [15], 0.05%; under setting [16], 0.3%; under setting [17], 0.42%. For the same compound, the viability, T/C under setting [18] was 113%; the viability, T/C under setting [19] is 54.8%; the viability, T/C under setting [20] is 1.26%; the viability, T/C under setting [21] was 0.32%; the viability, T/C under setting [22] is 0.11%; the viability, T/C under setting [23] is 0.25%. The viability, T/C under setting [24] was 85.7%; the viability, T/C under setting [25] was 54.4%; the viability, T/C under setting [26] was 0.8%; the viability, T/C under setting [27] was 0.07%; the viability, T/C under setting [28] was 0.76%; the viability, T/C under setting [29] was 0.17%. Further, the viability, T/C reads like this: under setting [30], 99%; under setting [31], 72.8%; under setting [32], 1.52%; under setting [33], 0.2%; under setting [34], 0.15%; under setting [35], 0.26%.
As to `Cc1ccccc1N=Nc1ccc(NC(=O)c2ccnn2C)c(C)c1`, the viability, T/C (compound 0.1 µM) was 99.4% [middle of 20 runs]; the viability, T/C (compound 0.316 µM) is 101% [middle of 20 runs]; the viability, T/C (compound 1 µM) was 97.6% [middle of 20 runs]; the viability, T/C (compound 10 µM) is 94% [middle of 20 runs]. Moreover, the IC50 (compound alone, run of 07/26/2022) is more than 10000 nM.
In the case of `Nc1ccccc1NC(=O)c1ccc(CNC(=O)OCc2cccnc2)cc1` + Cc1ccccc1N=Nc1ccc(NC(=O)c2ccnn2C)c(C)c1, the IC50 is 2220 nM under setting [1]; 2410 nM under setting [2]; 2340 nM under setting [3]; 2460 nM under setting [4]; 2410 nM under setting [5]. For the same compound, the viability, T/C runs as follows: (second compound 0.1 µM, first compound 0.0316 µM) 91.5%; (second compound 0.1 µM, first compound 0.1 µM) 102%; (second compound 0.1 µM, first compound 0.316 µM) 91.5%; (second compound 0.1 µM, first compound 1 µM) 72.9%; (second compound 0.1 µM, first compound 3.16 µM) 40.1%; (second compound 0.1 µM, first compound 10 µM) 23.3%. For the same compound, the viability, T/C was 95.7% (second compound 0.316 µM, first compound 0.0316 µM); 102% (second compound 0.316 µM, first compound 0.1 µM); 94.8% (second compound 0.316 µM, first compound 0.316 µM); 72.5% (second compound 0.316 µM, first compound 1 µM); 43.7% (second compound 0.316 µM, first compound 3.16 µM); 23.1% (second compound 0.316 µM, first compound 10 µM). In addition, the viability, T/C is, setting by setting: (second compound 1 µM, first compound 0.0316 µM) 91.8%; (second compound 1 µM, first compound 0.1 µM) 95.9%; (second compound 1 µM, first compound 0.316 µM) 90%; (second compound 1 µM, first compound 1 µM) 73.4%; (second compound 1 µM, first compound 3.16 µM) 41.8%; (second compound 1 µM, first compound 10 µM) 25.1%. Moreover, the viability, T/C is, setting by setting: (second compound 3.16 µM, first compound 0.0316 µM) 98.6%; (second compound 3.16 µM, first compound 0.1 µM) 88.7%; (second compound 3.16 µM, first compound 0.316 µM) 84.5%; (second compound 3.16 µM, first compound 1 µM) 68.8%; (second compound 3.16 µM, first compound 3.16 µM) 43.9%; (second compound 3.16 µM, first compound 10 µM) 23.5%. In addition, the viability, T/C is 91.6% (second compound 10 µM, first compound 0.0316 µM); 87.3% (second compound 10 µM, first compound 0.1 µM); 85.5% (second compound 10 µM, first compound 0.316 µM); 72.8% (second compound 10 µM, first compound 1 µM); 42.9% (second compound 10 µM, first compound 3.16 µM); 26.1% (second compound 10 µM, first compound 10 µM).
Take `CC(CO)NC(=O)c1cc(-c2ccc(Cl)cc2)nn(-c2cnn(C)c2)c1=O` (stereo not drawn): the viability, T/C runs as follows: (compound 0.1 µM) 98.2% [middle of 20 runs]; (compound 1 µM) 95.8% [middle of 21 runs]. Moreover, for the setting “compound alone, run of 07/12/2022”, the IC50 was more than 10000 nM.
